In article PMC10447463, “Data-mining unveils structure–property–activity correlation of viral infectivity enhancing self-assembling peptides” (Nature Communications, 2023):
Read-outs that look alike come from different tables or passages of the source.

Columns and labels:
[1] = format: physicochemical; set-up: key to Fibril / Fibril Formation / TEM 2cat / Fibril: 1 = fibrils present; 0 non-fibrillar structures; conditions: for Fibril / Fibril / Fibril Formation: TEM; for Fibril / Fibril Formation: 1 mg/mL, uranyl acetate stain, qualitative
[2] = format: physicochemical; conditions: for ThT Cat. / ThT-Fluorescence (categorical): ThT-active if fluorescence at least twice the control
Method in brief: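 Fibrils (1 mg/mL solution) were mixed with 50 µM ThT in PBS for 15 min at RT, and fluorescence was read at λex 440/λem 488 nm against a PBS blank, as a triplicate mean ± SD. Zeta potential came from electrophoretic mobility (Smoluchowski) after 1 d aggregation at 1 mg/mL in PBS pH 7.4, diluted into 1 mM KCl.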

[3] = Turbidity, derived count rate of scattered light; format: physicochemical; conditions: for Count Rate: derived count rate of scattered light (turbidity); for Log10 Count Rate: turbidity, derived count rate of scattered light, data of Figure 2D
[4] = FigS12 panel A, fibril category by TEM
[5] = 1 = fibrils present, 0 = non-fibrillar
[6] = 1 = fibrils present, 0 = non-fibrillar structures
[7] = ThT fluorescence category, 1 if Rel. ThT >2
[8] = category: fibrils present or non-fibrillar

Substance | TEM 2cat ([1]; Fig S10 panel D) | TEM 2cat [1, 4] | Fibril ([1]; FigS12 panel B) | Fibril / Fibril Formation [1] | Fibril [1, 5] | Fibril [1, 6] | Tht category (> 2 to blank = +) ([2]; Fig S10 panel D) | Tht category (> 2 to blank = +) ([2]; FigS12 panel A) | ThT Cat, ([2]; FigS12 panel B) | ThT Cat, ([2]; ThT category, 1 if Rel. ThT >2) | ThT Cat. ([2]; ThT category, 1 if Rel. ThT >2) | ThT Cat. / ThT-Fluorescence (categorical) [2] | Count Rate [3] | Log10 Count Rate [3] | ThT Cat. [2, 7] | TEM 2cat [1, 8]
QCKIKQII | 1 | 1 | 1 | 1 | 1 | 1 | 1 (ThT. Cat is 1, if Rel. ThT >2) | 1 (ThT. Cat is 1, if Rel. ThT >2) | 1 (ThT. Cat is 1, if Rel. ThT >2) | 1 (ThT. Cat is 1, if Rel. ThT >2) | 1 (ThT. Cat is 1, if Rel. ThT >2) | 1 (ThT. Cat is 1, if Rel. ThT >2) | 301 | 2.479 | – | –
KNDKND | 0 | 0 | 0 | 0 | 0 | 0 | 0 (ThT-inactive (N-Fold <2)) | 0 (ThT-inactive (N-Fold <2)) | 0 (ThT-inactive (N-Fold <2)) | 0 (ThT-inactive (N-Fold <2)) | 0 (ThT-inactive (N-Fold <2)) | 0 (ThT-inactive (N-Fold <2)) | 52.4 | 1.719 | – | –
NMWQKVGTPL | 0 | 0 | 0 | 0 | 0 | 0 | 1 (ThT. Cat is 1, if Rel. ThT >2) | 1 (ThT. Cat is 1, if Rel. ThT >2) | 1 (ThT. Cat is 1, if Rel. ThT >2) | 1 (ThT. Cat is 1, if Rel. ThT >2) | 1 (ThT. Cat is 1, if Rel. ThT >2) | 1 (ThT. Cat is 1, if Rel. ThT >2) | 26.97 | 1.431 | – | –
CKYKYQY | 0 | 0 | 0 | 0 | 0 | 0 | 1 (ThT. Cat is 1, if Rel. ThT >2) | 1 (ThT. Cat is 1, if Rel. ThT >2) | 1 (ThT. Cat is 1, if Rel. ThT >2) | 1 (ThT. Cat is 1, if Rel. ThT >2) | – | 1 (ThT. Cat is 1, if Rel. ThT >2) | 1061 | 3.026 | 1 (ThT. Cat is 1, if Rel. ThT >2) | –
KIKIQINMW | 1 | – | – | 1 | 1 | 1 | 1 (ThT. Cat is 1, if Rel. ThT >2) | – | – | 1 (ThT. Cat is 1, if Rel. ThT >2) | – | 1 (ThT. Cat is 1, if Rel. ThT >2) | 239.6 | 2.38 | 1 (ThT. Cat is 1, if Rel. ThT >2) | 1
KFKQFFNMWQ | 0 | 0 | 0 | 0 | 0 | 0 | 0 (ThT-inactive (N-Fold <2)) | 0 (ThT-inactive (N-Fold <2)) | 0 (ThT-inactive (N-Fold <2)) | 0 (ThT-inactive (N-Fold <2)) | 0 (ThT-inactive (N-Fold <2)) | 0 (ThT-inactive (N-Fold <2)) | 236.9 | 2.375 | – | –
KWKWQW | 0 | 0 | 0 | 0 | 0 | 0 | 0 (ThT-inactive (N-Fold <2)) | 0 (ThT-inactive (N-Fold <2)) | 0 (ThT-inactive (N-Fold <2)) | 0 (ThT-inactive (N-Fold <2)) | – | 0 (ThT-inactive (N-Fold <2)) | 1545 | 3.189 | 0 (ThT-inactive (N-Fold <2)) | –
CKIKIQIII | 1 | – | – | 1 | 1 | 1 | 1 (ThT. Cat is 1, if Rel. ThT >2) | – | – | 1 (ThT. Cat is 1, if Rel. ThT >2) | 1 (ThT. Cat is 1, if Rel. ThT >2) | 1 (ThT. Cat is 1, if Rel. ThT >2) | 4953 | 3.695 | – | 1
KYKGAIIGNIK | 0 | 0 | 0 | 0 | 0 | 0 | 0 (ThT-inactive (N-Fold <2)) | 0 (ThT-inactive (N-Fold <2)) | 0 (ThT-inactive (N-Fold <2)) | 0 (ThT-inactive (N-Fold <2)) | 0 (ThT-inactive (N-Fold <2)) | 0 (ThT-inactive (N-Fold <2)) | 44.1 | 1.644 | – | –
